PubChem BioAssay (NCI)
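Compound exposure: 48 hours, 5 concentrations, 96-well plates. Abbreviation: GI50, concentration required for 50% inhibition of growth. At the TGI there is no net growth.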

Assays:
Experiment in all cases: DTP human tumour cell line panel, 48 h
[1] = system: HCC-2998 colon
[2] = system: UACC-257 melanoma
[3] = system: SF-539 CNS
[4] = system: K-562 leukemia
[5] = system: NCI-H460 lung
[6] = system: RPMI-8226 leukemia
[7] = system: SN12C renal
[8] = system: COLO 205 colon
[9] = system: HCT-15 colon
[10] = system: MDA-MB-435
[11] = system: PC-3 prostate
[12] = system: MOLT-4 leukemia
[13] = system: DU-145 prostate
[14] = system: SW-620 colon
[15] = system: HCT-116 colon
[16] = system: A498 renal
[17] = system: U251 CNS
[18] = system: SK-MEL-28 melanoma
[19] = system: SNB-19 CNS
[20] = system: OVCAR-3 ovarian
[21] = system: HOP-62 NSCLC
[22] = system: NCI-H226 lung
[23] = system: SK-MEL-2 melanoma
[24] = system: EKVX NSCLC
[25] = system: RXF 393 renal
[26] = system: NCI/ADR-RES ovarian
[27] = system: LOX IMVI melanoma
[28] = system: MALME-3M melanoma
[29] = system: SF-295 CNS
[30] = system: KM12 colon
[31] = system: OVCAR-5 ovarian
[32] = system: NCI-H522 lung
[33] = system: UO-31 renal
[34] = system: SR leukemia
[35] = system: SK-OV-3 ovarian
[36] = system: NCI-H23 lung
[37] = system: CAKI-1 renal
[38] = system: UACC-62 melanoma
[39] = system: T-47D breast
[40] = system: M14 melanoma
[41] = system: SF-268 CNS
[42] = system: ACHN renal
[43] = system: 786-0 renal
[44] = system: HT29 colon
[45] = system: IGROV1 ovarian
[46] = system: HS 578T breast
[47] = system: MCF7 breast
[48] = system: TK-10 renal
[49] = system: A549 NSCLC
[50] = system: OVCAR-8 ovarian
[51] = system: OVCAR-4 ovarian
[52] = system: HL-60(TB) leukemia
[53] = system: HOP-92 NSCLC
[54] = system: MDA-MB-231 breast
[55] = system: SNB-75 CNS
[56] = system: BT-549 breast
[57] = system: CCRF-CEM leukemia
[58] = system: SK-MEL-5 melanoma

## COc1cc(C2CC(c3cccc(Nc4ccnc5cc(Cl)ccc45)c3)=NN2C=O)cc(OC)c1OC (stereo not given)
[1]
  GI50: 2.31 µM
  TGI: 24.4 µM
[2]
  GI50: 0.743 µM
  TGI: 5.6 µM
[3]
  GI50: 1.02 µM
  TGI: 3.89 µM
[4]
  GI50: 0.435 µM
  TGI: 12.6 µM
[5]
  GI50: 0.436 µM
  TGI: > 40.4 µM
[6]
  GI50: 3.72 µM
  TGI: > 23 µM
[7]
  GI50: 1.14 µM
  TGI: 27.2 µM
[8]
  GI50: 0.635 µM
  TGI: 7.15 µM
[9]
  GI50: 0.626 µM
  TGI: > 100 µM
[10]
  GI50: 0.157 µM
  TGI: 0.466 µM
[11]
  GI50: 0.979 µM
  TGI: 19.2 µM
[12]
  GI50: 0.595 µM
  TGI: 4.44 µM
[13]
  GI50: 1.97 µM
  TGI: 11.8 µM
[14]
  GI50: 0.401 µM
[15]
  GI50: 0.381 µM
  TGI: 1.64 µM
[16]
  GI50: 0.273 µM
  TGI: 1.63 µM
[17]
  GI50: 0.393 µM
  TGI: 3.46 µM
[18]
  GI50: 0.961 µM
  TGI: 4.26 µM
[19]
  GI50: 2.52 µM
  TGI: > 100 µM
[20]
  GI50: 0.408 µM
  TGI: 1.35 µM
[21]
  GI50: 0.846 µM
  TGI: 8.31 µM
[22]
  GI50: 1.98 µM
  TGI: 6.15 µM
[23]
  GI50: 0.504 µM
  TGI: 3.08 µM
[24]
  GI50: 1.3 µM
  TGI: 26.1 µM
[25]
  GI50: 1.38 µM
  TGI: 5.29 µM
[26]
  GI50: 1.3 µM
  TGI: 6.3 µM
[27]
  GI50: 0.791 µM
  TGI: 7.15 µM
[28]
  GI50: 0.825 µM
  TGI: 5.14 µM
[29]
  GI50: 0.357 µM
  TGI: 3.61 µM
[30]
  GI50: 0.502 µM
  TGI: > 23.4 µM
[31]
  GI50: 3.5 µM
  TGI: 20.3 µM
[32]
  GI50: 0.502 µM
  TGI: 6.68 µM
[33]
  GI50: 1.32 µM
  TGI: 4.69 µM
[34]
  GI50: 0.318 µM
  TGI: 1.7 µM
[35]
  GI50: 1.35 µM
  TGI: 4.14 µM
[36]
  GI50: 1.4 µM
  TGI: 21.5 µM
[37]
  GI50: 0.563 µM
  TGI: 2.47 µM
[38]
  GI50: 0.621 µM
  TGI: 2.66 µM
[39]
  GI50: 0.805 µM
  TGI: 5.17 µM
[40]
  GI50: 0.319 µM
  TGI: 2 µM
[41]
  GI50: 1.49 µM
  TGI: > 34.8 µM
[42]
  GI50: 1.27 µM
  TGI: 5.32 µM
[43]
  GI50: 1.12 µM
  TGI: 5.16 µM
[44]
  GI50: 0.364 µM
  TGI: 1.23 µM
[45]
  GI50: 2.12 µM
  TGI: > 43.2 µM
[46]
  GI50: 0.545 µM
  TGI: 9.36 µM
[47]
  GI50: 0.354 µM
  TGI: 10.2 µM
[48]
  GI50: 1.12 µM
  TGI: 4.45 µM
[49]
  GI50: 0.571 µM
  TGI: 10 µM
[50]
  GI50: 1.64 µM
  TGI: > 28.3 µM
[51]
  GI50: 1.13 µM
  TGI: 6.21 µM
[52]
  GI50: 0.243 µM
  TGI: 0.53 µM
[53]
  GI50: 2.75 µM
  TGI: 85.4 µM
[54]
  GI50: 1.36 µM
  TGI: 13.7 µM
[55]
  GI50: 0.31 µM
  TGI: 2.3 µM
[56]
  GI50: 0.419 µM
  TGI: 1.7 µM
[57]
  GI50: 0.462 µM
[58]
  GI50: 0.454 µM
  TGI: 2.34 µM

## CCN1C(C)(C)CC(Oc2ccc(C(=O)Nc3ccc(NC(=O)Nc4cc(C(C)(C)C)on4)cc3)nc2)CC1(C)C
[1]
  GI50: 1.9 µM
  TGI: 4.17 µM
[2]
  GI50: 2.2 µM
  TGI: 4.02 µM
[3]
  GI50: 1.15 µM
  TGI: 2.62 µM
[4]
  GI50: 1.69 µM
  TGI: 3.76 µM
[5]
  GI50: 1.89 µM
  TGI: 3.69 µM
[6]
  GI50: 1.96 µM
  TGI: 4.72 µM
[7]
  GI50: 1.66 µM
  TGI: 3.4 µM
[8]
  GI50: 1.83 µM
  TGI: 3.82 µM
[9]
  GI50: 1.71 µM
  TGI: 3.72 µM
[10]
  GI50: 1.82 µM
  TGI: 3.47 µM
[11]
  GI50: 2.88 µM
  TGI: 8.82 µM
[12]
  GI50: 1.93 µM
  TGI: 5.24 µM
[13]
  GI50: 1.87 µM
  TGI: 3.72 µM
[14]
  GI50: 2.1 µM
  TGI: 4.37 µM
[15]
  GI50: 1.99 µM
  TGI: 3.68 µM
[16]
  GI50: 1.95 µM
  TGI: 11.6 µM
[17]
  GI50: 1.68 µM
  TGI: 3.58 µM
[18]
  GI50: 1.8 µM
  TGI: 3.63 µM
[19]
  GI50: 2.64 µM
  TGI: 11.2 µM
[20]
  GI50: 1.78 µM
  TGI: 3.86 µM
[21]
  GI50: 1.67 µM
  TGI: 3.87 µM
[22]
  GI50: 11.2 µM
  TGI: 30.7 µM
[23]
  GI50: 2.09 µM
  TGI: 4.89 µM
[24]
  GI50: 3.6 µM
  TGI: 20.9 µM
[25]
  GI50: 1.64 µM
  TGI: 3.36 µM
[26]
  GI50: 2.48 µM
  TGI: > 22.6 µM
[27]
  GI50: 1.78 µM
  TGI: 3.31 µM
[28]
  GI50: 1.61 µM
  TGI: 3.37 µM
[29]
  GI50: 1.67 µM
  TGI: 3.27 µM
[30]
  GI50: 2.91 µM
  TGI: 9.35 µM
[31]
  GI50: 2.94 µM
  TGI: 11.4 µM
[32]
  GI50: 1.82 µM
  TGI: 4.23 µM
[33]
  GI50: 1.67 µM
  TGI: 4.25 µM
[34]
  GI50: 2.28 µM
  TGI: 4.91 µM
[35]
  GI50: 6.03 µM
  TGI: 15.9 µM
[36]
  GI50: 3.64 µM
  TGI: 20.1 µM
[37]
  GI50: 1.98 µM
  TGI: 5.35 µM
[38]
  GI50: 1.76 µM
  TGI: 3.51 µM
[39]
  GI50: 2.34 µM
  TGI: 7.2 µM
[40]
  GI50: 1.91 µM
  TGI: 3.63 µM
[41]
  GI50: 2.39 µM
  TGI: 7.71 µM
[42]
  GI50: 2.05 µM
  TGI: 4.37 µM
[43]
  GI50: 1.66 µM
  TGI: 3.52 µM
[44]
  GI50: 1.58 µM
  TGI: 3.86 µM
[45]
  GI50: 6.86 µM
  TGI: 47.5 µM
[46]
  GI50: 1.44 µM
  TGI: 6.06 µM
[47]
  GI50: 2.14 µM
  TGI: 5.55 µM
[48]
  GI50: 5.49 µM
  TGI: 14 µM
[49]
  GI50: 2.71 µM
  TGI: 7.4 µM
[50]
  GI50: 2.29 µM
  TGI: 5.66 µM
[51]
  GI50: 5.23 µM
  TGI: 25.9 µM
[52]
  GI50: 2.02 µM
  TGI: 4.38 µM
[53]
  GI50: 2.38 µM
  TGI: 8.09 µM
[54]
  GI50: 2.02 µM
  TGI: 4.82 µM
[55]
  GI50: 1.35 µM
  TGI: 3.44 µM
[56]
  GI50: 4.53 µM
  TGI: 10.3 µM
[57]
  GI50: 2.85 µM
  TGI: 7.77 µM
[58]
  GI50: 1.68 µM
  TGI: 3.22 µM
